Laboratory results taken from the supplement of paper PMC10307832.

Columns and labels:
Experiment in all cases: relative viability (nuclei count vs DMSO), 5 days (fraction); higher = more cells survive
CX-5461 + Alpelisib = compound: Cc1cnc(CNC(=O)c2c(=O)c3ccc(N4CCCN(C)CC4)nc3n3c2sc2ccccc23)cn1 [CX-5461] + Cc1nc(NC(=O)N2CCC[C@H]2C(N)=O)sc1-c1ccnc(C(C)(C)C(F)(F)F)c1 [Alpelisib] (partner 2 µM)
In short: (§1)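 Medians of duplicate plates are given as relative viability. That measure is the nuclei count in treated wells divided by the count in vehicle wells. Counts were taken on 4× images of lung cancer cell lines in 1536-well plates, 5 days after pin-tool dosing the day after seeding with one drug alone or a fixed anchor-drug dose plus five library-drug doses (not always all listed) in √10 steps.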

CX-5461 + Phenformin = compound: Cc1cnc(CNC(=O)c2c(=O)c3ccc(N4CCCN(C)CC4)nc3n3c2sc2ccccc23)cn1 [CX-5461] + N=C(N)NC(=N)NCCc1ccccc1 [Phenformin] (partner 250 µM)
In short: as §1

CX-5461 + Trametinib = compound: Cc1cnc(CNC(=O)c2c(=O)c3ccc(N4CCCN(C)CC4)nc3n3c2sc2ccccc23)cn1 [CX-5461] + CC(=O)Nc1cccc(-n2c(=O)n(C3CC3)c(=O)c3c(Nc4ccc(I)cc4F)n(C)c(=O)c(C)c32)c1 [Trametinib] (partner 0.02 µM)
In short: as §1

IMD-0354 + Vorinostat = compound: O=C(Nc1cc(C(F)(F)F)cc(C(F)(F)F)c1)c1cc(Cl)ccc1O [IMD-0354] + O=C(CCCCCCC(=O)Nc1ccccc1)NO [Vorinostat] (partner 1 µM)
In short: as §1

Cell Line | relative viability (CX-5461 + Alpelisib; first compound 0.01 µM) | relative viability (CX-5461 + Alpelisib; first compound 0.03162 µM) | relative viability (CX-5461 + Alpelisib; first compound 0.3162 µM) | relative viability (CX-5461 + Alpelisib; first compound 1 µM) | relative viability (CX-5461 + Phenformin; first compound 0.01 µM) | relative viability (CX-5461 + Phenformin; first compound 0.03162 µM) | relative viability (CX-5461 + Phenformin; first compound 0.1 µM) | relative viability (CX-5461 + Phenformin; first compound 0.3162 µM) | relative viability (CX-5461 + Phenformin; first compound 1 µM) | relative viability (CX-5461 + Trametinib; first compound 0.01 µM) | relative viability (CX-5461 + Trametinib; first compound 0.03162 µM) | relative viability (CX-5461 + Trametinib; first compound 0.1 µM) | relative viability (CX-5461 + Trametinib; first compound 0.3162 µM) | relative viability (CX-5461 + Trametinib; first compound 1 µM) | relative viability (IMD-0354 + Vorinostat; first compound 0.04 µM) | relative viability (IMD-0354 + Vorinostat; first compound 0.1265 µM) | relative viability (IMD-0354 + Vorinostat; first compound 0.4 µM) | relative viability (IMD-0354 + Vorinostat; first compound 1.265 µM) | relative viability (IMD-0354 + Vorinostat; first compound 4 µM) | relative viability (CX-5461 + Alpelisib; first compound 0.1 µM)
NCI-H1666 | 1.01 | 0.983 | 0.924 | 0.416 | 0.542 | 0.551 | 0.505 | 0.548 | 0.507 | 0.895 | 0.891 | 0.719 | 0.821 | 0.65 | 1.03 | 1.01 | 0.805 | 0.908 | 0.832 | –
NCI-H1734 | 0.772 | 0.789 | 0.559 | 0.615 | 0.411 | 0.376 | 0.374 | 0.306 | 0.218 | 0.716 | 0.781 | 0.788 | 0.599 | 0.711 | 0.879 | 0.781 | 0.454 | 0.301 | 0.102 | 0.665
NCI-H1755 | 0.899 | 1.01 | 0.973 | 0.919 | 0.603 | 0.637 | 0.615 | 0.56 | 0.493 | 0.826 | 0.796 | 0.836 | 0.719 | 0.753 | 0.829 | 0.781 | 0.59 | 0.408 | 0.225 | 0.929
NCI-H1793 | 0.769 | 0.668 | 0.71 | 0.726 | 0.388 | 0.392 | 0.433 | – | 0.289 | 0.386 | 0.519 | 0.364 | 0.411 | 0.353 | 0.698 | 0.949 | 0.461 | 0.262 | 0.287 | 0.772
NCI-H1915 | 1.07 | 1.12 | 1.04 | 1.03 | 0.375 | 0.364 | 0.376 | 0.32 | 0.31 | 0.285 | 0.326 | 0.327 | 0.315 | 0.307 | 0.496 | 0.509 | 0.339 | 0.334 | 0.115 | 1.09
NCI-H1944 | 0.806 | 0.936 | – | 0.831 | 0.228 | 0.193 | 0.181 | 0.159 | 0.122 | 0.47 | 0.406 | 0.419 | 0.314 | 0.448 | 0.496 | 0.575 | 0.384 | 0.251 | 0.148 | 0.808
NCI-H1975 | 0.74 | 0.641 | 0.64 | 0.408 | 0.44 | 0.401 | 0.377 | 0.415 | 0.2 | 0.39 | 0.317 | 0.367 | 0.395 | 0.298 | 0.723 | 0.685 | 0.493 | 0.209 | 0.248 | 0.614
NCI-H1993 | 0.721 | 0.706 | 0.577 | 0.605 | 0.478 | 0.476 | 0.457 | 0.452 | 0.416 | 0.525 | 0.448 | 0.476 | 0.431 | 0.544 | 0.75 | 0.696 | 0.582 | 0.313 | 0.498 | 0.667
NCI-H2009 | 1.12 | 1.14 | 1.13 | 0.681 | 0.501 | 0.441 | 0.24 | 0.472 | 0.282 | 0.341 | 0.271 | 0.286 | 0.301 | 0.243 | 0.705 | 0.784 | 0.544 | 0.253 | 0.113 | 1.12
NCI-H2023 | 0.646 | 0.606 | 0.57 | 0.0938 | 0.374 | 0.335 | 0.194 | 0.294 | 0.0701 | 0.54 | 0.564 | – | 0.491 | 0.115 | 0.7 | 0.738 | 0.464 | 0.127 | 0.104 | –
NCI-H2085 | 0.965 | 0.935 | 1.02 | 0.853 | 0.768 | 0.691 | 0.704 | 0.658 | 0.587 | 0.516 | 0.564 | 0.464 | 0.527 | 0.615 | 0.825 | 0.902 | 0.617 | 0.376 | 0.362 | 0.96
NCI-H2087 | 1.02 | 1.03 | 1.34 | 0.583 | 0.411 | 0.406 | 0.398 | 0.316 | 0.32 | 0.173 | 0.268 | 0.201 | 0.209 | 0.186 | 0.806 | 0.837 | 0.2 | 0.0721 | 0.0731 | 1.07
NCI-H2126 | 0.794 | 0.784 | 0.78 | 0.772 | 0.576 | 0.542 | 0.513 | 0.589 | 0.407 | 0.591 | 0.628 | 0.591 | 0.557 | 0.526 | 0.762 | 0.826 | 0.692 | 0.382 | 0.289 | 0.717
NCI-H2170 | 0.766 | 0.834 | 0.913 | 0.718 | 0.44 | 0.418 | 0.407 | 0.363 | 0.322 | 0.987 | 0.976 | 0.971 | 0.952 | 0.862 | 0.859 | 0.89 | 0.573 | 0.74 | 0.231 | 0.889
NCI-H2228 | 0.709 | 0.884 | 0.591 | 0.234 | 0.327 | 0.204 | 0.184 | 0.26 | 0.0912 | 0.553 | 0.489 | 0.418 | 0.432 | 0.236 | 0.439 | 0.542 | 0.434 | 0.425 | 0.247 | 0.504
NCI-H2347 | 1.11 | 1.04 | 0.834 | 0.994 | 0.546 | 0.361 | 0.337 | 0.338 | 0.397 | 0.273 | 0.279 | 0.292 | 0.272 | 0.223 | 0.636 | 0.629 | 0.512 | 0.315 | 0.382 | 1.07
